We go through 3 compounds from BindingDB's records for doi:10.1016/j.bmcl.2011.04.103 (University of Strasburg, 2011).

The nature of the experiment: Inhibition of N-terminal SHH activated pathway in mouse C3H10T1/2 cells assessed as SAG-induced cell differentiation by alkaline phosphatase assay.
For orientation: IC50 means the point on the concentration scale where inhibition reaches its midpoint. In the case of `CC1=C2C[C@H]3[C@@H](CC=C4C[C@@H](O)CC[C@@]43C)[C@@H]2CC[C@]12O[C@@H]1C[C@H](C)CN[C@H]1[C@H]2C`, the half-inhibitory concentration (IC50) worked out at 600 nM.

With `C[C@H]([C@@H]1CCCCN1)[C@H]1CC[C@H]2[C@@H]3CC=C4C[C@@H](O)CC[C@]4(C)[C@H]3CC[C@]12C`, the IC50 amounted to 3200 nM.

Take `COc1cccc(CN(C(=O)CC(C)(C)C)[C@H]2C[C@@H](C(=O)N3CCNCC3)N(Cc3ccc4c(c3)OCO4)C2)c1` [N-((3S,5S)-1-(benzo[d][1,3]dioxol-5-ylmethyl)-5-(piperazine-1-carbonyl)pyrrolidin-3-yl)-N-(3-methoxybenzyl)-3,3-dimethylbutanamide]: the IC50 amounted to 300 nM.
